In ChEMBL document CHEMBL1201862, “PubChem BioAssay data set” (2004):
Activity calls are given as the source filed them. Rule as the data show it: actives have a measured EC50 and inactives only a lower limit.

Experiments:
[1] = biological target: T1, Heat shock factor protein 1 (Mus musculus, UniProt P38532); assay: enhancement of HSF1-driven luciferase signal – cell-based, NIH3T3, luminescence, dose retest, confirmation (AID 435004); format: functional;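 also: stress induced by proteasome inhibitor MG132 added 30 min after compound; luciferase reporter driven by HSF1 response element in NIH3T3 cells; actives raise luminescence as potentiators of the MG132 stress response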
T1 sequence (P38532 whole entry): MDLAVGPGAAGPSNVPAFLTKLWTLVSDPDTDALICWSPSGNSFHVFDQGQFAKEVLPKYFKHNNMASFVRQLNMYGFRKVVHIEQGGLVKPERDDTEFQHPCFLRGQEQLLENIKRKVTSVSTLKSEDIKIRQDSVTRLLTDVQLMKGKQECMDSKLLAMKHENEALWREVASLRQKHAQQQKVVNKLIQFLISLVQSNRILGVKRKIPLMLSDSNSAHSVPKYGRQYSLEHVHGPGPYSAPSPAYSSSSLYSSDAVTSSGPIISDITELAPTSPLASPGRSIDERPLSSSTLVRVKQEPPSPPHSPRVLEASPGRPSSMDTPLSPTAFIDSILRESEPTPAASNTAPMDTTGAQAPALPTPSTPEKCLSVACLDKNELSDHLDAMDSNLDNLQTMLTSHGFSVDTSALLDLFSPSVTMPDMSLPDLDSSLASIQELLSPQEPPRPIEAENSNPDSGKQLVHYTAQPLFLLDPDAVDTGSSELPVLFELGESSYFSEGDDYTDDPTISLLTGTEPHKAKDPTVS

[2] = NIH3T3 cell viability loss – ATP luminescence, mouse fibroblasts, counter-screen, dose response (AID 2010); format: functional, cell-based;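 also: cells exposed to compound for about 90 hours before reading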
[3] = Trypanosoma cruzi growth suppression in host cells – NIH3T3 host cells, beta-gal luminescence, confirmation (AID 2044); format: functional, cell-based;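 also: intracellular parasites grown in NIH/3T3 mouse fibroblasts as host cells; luminescent beta-galactosidase reporter signal from transgenic T. cruzi replicating inside host cells; inhibitors lower the luminescence signal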

Row | Structure (SMILES) | EC50 [1] | EC50 [2] | EC50 [3]
1 | CN1CCN(C(=O)/C(=C/c2cccnc2)NC(=O)c2cccc(Br)c2)CC1 | > 260 µM (inactive) | – | –
2 | Nc1nnc(CSCc2ccccc2Cl)s1 | > 260 µM (inactive) | – | –
3 | CCN(CC)S(=O)(=O)c1ccc2oc(C(=O)NC3CCCc4ccccc43)c(C)c2c1 (configuration not stated) | – | > 60 µM (not active) | 2.1 µM (active)
4 | CC1CC(C)CN(C(=O)CCS(=O)(=O)c2ccc3c(c2)NC(=O)CS3)C1 (configuration not stated) | > 260 µM (inactive) | – | –
5 | O=C(Nc1ccccc1)N1CCCN(c2ccc(C(F)(F)F)cc2[N+](=O)[O-])CC1 | > 260 µM (inactive) | – | –
6 | Cn1cc(C=O)c(-c2ccc3c(c2)OCCCO3)n1 | > 260 µM (inactive) | – | –
7 | Cc1cccc(C(C)C)c1NC(=O)COC(=O)c1cccc(S(=O)(=O)N2CCc3ccccc3C2)c1 | > 260 µM (inactive) | – | –
8 | CCOc1ccc(NC(=S)N(Cc2ccc(Cl)cc2)Cc2ccco2)cc1 | > 260 µM (inactive) | – | –
9 | CCN1C(=O)CC(N2CCN(c3ccc(C(=O)c4ccccc4)cc3)CC2)C1=O (configuration not stated) | > 260 µM (inactive) | – | –
10 | O=C(NC1CCSc2ccccc21)c1ccccc1Cl (configuration not stated) | > 260 µM (inactive) | – | –
11 | CN(C)CCCn1c(N)c(C#N)c2nc(C#N)c(C#N)nc21 | 58.3 µM (active) | – | –
12 | O=C(CCNc1ccc(F)cc1)c1cc2ccccc2o1 | – | > 60 µM (not active) | 1.12 µM (active)
13 | COc1ccccc1NC(=O)CN1CCN(CC(=O)Nc2ccccc2Cl)CC1 | > 260 µM (inactive) | – | –
14 | O=C(N/N=C/c1ccc(-c2cccc([N+](=O)[O-])c2)o1)c1cccs1 | – | > 60 µM (not active) | 0.634 µM (active)
